# Measurements: ChEMBL document CHEMBL1201862, “PubChem BioAssay data set” (2004)
# Active and inactive are the calls of the source.
# Tests used:
# HEK293 = assay: cells; assay type: functional, cell-based; details: Homo sapiens
# [1] = biological target: T1, Nuclear receptor subfamily 0 group B member 1 (Homo sapiens, UniProt P51843); assay: Luminescence-based cell-based high throughput dose response assay for inhibitors of the orphan nuclear receptor subfamily 0, group B, member 1 (DAX1; NR0B1). [Related pubchem assays (depositor defined):AID504766, AID504790]; assay type: functional
# T1 sequence (P51843 whole entry): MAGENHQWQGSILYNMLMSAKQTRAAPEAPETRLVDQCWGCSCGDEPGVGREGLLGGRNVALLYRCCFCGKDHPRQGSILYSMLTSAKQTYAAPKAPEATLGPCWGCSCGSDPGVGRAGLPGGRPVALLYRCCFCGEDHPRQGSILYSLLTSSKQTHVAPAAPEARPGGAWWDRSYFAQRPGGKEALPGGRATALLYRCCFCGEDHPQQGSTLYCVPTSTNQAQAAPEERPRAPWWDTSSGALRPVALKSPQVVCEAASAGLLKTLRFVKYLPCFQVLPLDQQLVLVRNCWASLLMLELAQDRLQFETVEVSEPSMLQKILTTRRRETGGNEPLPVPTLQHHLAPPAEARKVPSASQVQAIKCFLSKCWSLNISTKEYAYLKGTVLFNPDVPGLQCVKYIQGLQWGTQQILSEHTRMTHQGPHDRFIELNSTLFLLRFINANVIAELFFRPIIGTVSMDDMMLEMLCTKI
# [2] = biological target: Ras and Rab interactor 1/Tyrosine-protein kinase ABL1 (Homo sapiens, UniProt P00519+Q13671); assay type: functional;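 also: biochemical TR-FRET dose-response test measuring inhibition of binding between Rin1 and Abl proteins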
# Aurora kinase A = Aurora kinase A (Homo sapiens, UniProt O14965); assay type: functional;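 also: value from the Navigating the Kinome kinase panel profiling, panel entry STK6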
# Aurora kinase B = Aurora kinase B (Homo sapiens, UniProt Q96GD4); assay type: functional
# Sequence of Aurora kinase B (Q96GD4 whole entry): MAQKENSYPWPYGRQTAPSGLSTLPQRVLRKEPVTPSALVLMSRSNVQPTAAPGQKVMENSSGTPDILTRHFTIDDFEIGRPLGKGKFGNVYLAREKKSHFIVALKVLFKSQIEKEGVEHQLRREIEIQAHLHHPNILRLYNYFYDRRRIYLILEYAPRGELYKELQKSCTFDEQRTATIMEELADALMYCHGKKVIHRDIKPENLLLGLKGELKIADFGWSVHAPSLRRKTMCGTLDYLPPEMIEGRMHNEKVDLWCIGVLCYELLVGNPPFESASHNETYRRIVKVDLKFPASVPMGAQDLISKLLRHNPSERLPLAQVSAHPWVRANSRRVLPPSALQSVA
# [3] = biological target: T2, High affinity choline transporter 1 (Homo sapiens, UniProt Q9GZV3); assay: human choline transporter blockers, potency – cell-based, 5-point CRC, membrane potential dye, dose response (AID 504840); assay type: functional
# T2 sequence (Q9GZV3 whole entry): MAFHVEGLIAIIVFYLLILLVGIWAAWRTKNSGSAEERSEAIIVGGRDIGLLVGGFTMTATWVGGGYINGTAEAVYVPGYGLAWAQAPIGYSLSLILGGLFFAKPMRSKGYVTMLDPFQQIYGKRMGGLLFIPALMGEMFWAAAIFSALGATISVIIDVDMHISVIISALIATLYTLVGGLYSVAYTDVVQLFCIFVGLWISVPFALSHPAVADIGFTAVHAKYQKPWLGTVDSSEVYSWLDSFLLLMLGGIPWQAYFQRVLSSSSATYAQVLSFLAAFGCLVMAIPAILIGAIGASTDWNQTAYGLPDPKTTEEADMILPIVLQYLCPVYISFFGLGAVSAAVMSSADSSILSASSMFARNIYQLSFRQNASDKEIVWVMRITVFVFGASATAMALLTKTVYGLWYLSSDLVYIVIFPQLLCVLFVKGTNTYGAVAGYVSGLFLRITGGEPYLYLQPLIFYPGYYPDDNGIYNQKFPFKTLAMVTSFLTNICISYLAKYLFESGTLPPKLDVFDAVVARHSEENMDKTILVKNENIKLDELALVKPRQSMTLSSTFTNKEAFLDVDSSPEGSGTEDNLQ
# [4] = biological target: T3, Rac GTPase-activating protein 1 (Homo sapiens, UniProt Q9H0H5); assay: blockers of MgcRacGAP-driven Rac1 GTP hydrolysis – biochemical, ADP Hunter fluorescence, primary and confirmatory, confirmation (AID 624330); assay type: functional
# T3 sequence (Q9H0H5 whole entry): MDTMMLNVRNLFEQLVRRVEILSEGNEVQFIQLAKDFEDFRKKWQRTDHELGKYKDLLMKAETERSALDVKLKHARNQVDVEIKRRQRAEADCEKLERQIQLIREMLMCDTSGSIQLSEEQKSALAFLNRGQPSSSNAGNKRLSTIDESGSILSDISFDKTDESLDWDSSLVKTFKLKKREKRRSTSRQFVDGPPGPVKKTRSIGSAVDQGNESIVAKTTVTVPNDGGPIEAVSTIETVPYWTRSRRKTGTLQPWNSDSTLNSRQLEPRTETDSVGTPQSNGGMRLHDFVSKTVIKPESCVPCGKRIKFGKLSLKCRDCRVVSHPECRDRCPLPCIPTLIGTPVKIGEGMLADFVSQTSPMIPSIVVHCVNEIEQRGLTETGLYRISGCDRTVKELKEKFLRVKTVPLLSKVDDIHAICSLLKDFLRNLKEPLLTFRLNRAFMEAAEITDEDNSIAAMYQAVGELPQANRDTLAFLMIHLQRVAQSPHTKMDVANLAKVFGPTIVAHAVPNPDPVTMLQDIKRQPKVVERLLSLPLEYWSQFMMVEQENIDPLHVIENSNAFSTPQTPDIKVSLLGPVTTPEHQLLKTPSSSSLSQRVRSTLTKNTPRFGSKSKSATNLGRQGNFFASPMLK
# [5] = biological target: Dual specificity tyrosine-phosphorylation-regulated kinase 1A (Rattus norvegicus, UniProt Q63470); assay type: biochemical, Homo sapiens
# [6] = biological target: Heat shock protein HSP 90-alpha (Homo sapiens, UniProt P07900); assay type: functional, organism-based
# [7] = biological target: 72 kDa type IV collagenase (Homo sapiens, UniProt P08253); assay: Dose Response validation of uHTS RPN11 inhibitor hits using a MMP-2 Fluorescence assay.; assay type: functional
# [8] = biological target: 26S proteasome non-ATPase regulatory subunit 14 (Homo sapiens, UniProt O00487); assay: inhibition of proteasome subunit RPN11 – biochemical, fluorescence polarization, uHTS hits, confirmation (AID 602368); assay type: functional
# Sequence of 26S proteasome non-ATPase regulatory subunit 14 (O00487 whole entry): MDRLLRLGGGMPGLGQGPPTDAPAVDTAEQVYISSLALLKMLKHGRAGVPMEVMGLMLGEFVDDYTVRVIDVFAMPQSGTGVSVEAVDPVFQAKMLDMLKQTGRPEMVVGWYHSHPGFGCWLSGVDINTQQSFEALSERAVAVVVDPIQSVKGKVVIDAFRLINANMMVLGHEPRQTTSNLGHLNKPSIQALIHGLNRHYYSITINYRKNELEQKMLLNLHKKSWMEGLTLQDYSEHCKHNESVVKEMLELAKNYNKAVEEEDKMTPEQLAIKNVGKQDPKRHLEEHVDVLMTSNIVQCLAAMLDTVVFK
# Prothrombin = Prothrombin (Bos taurus, UniProt P00735); assay: thrombin protease inhibitors – biochemical, fluorescence polarization, uHTS hits, dose response (AID 602369); assay type: functional
# [9] = biological target: Serine/threonine-protein kinase Chk1 (Homo sapiens, UniProt O14757); assay type: functional;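 also: measured as one member of a kinome-wide kinase profiling panel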
# [10] = biological target: Serine/threonine-protein kinase Nek2 (Homo sapiens, UniProt P51955); assay type: functional
# Sequence of Serine/threonine-protein kinase Nek2 (P51955 whole entry): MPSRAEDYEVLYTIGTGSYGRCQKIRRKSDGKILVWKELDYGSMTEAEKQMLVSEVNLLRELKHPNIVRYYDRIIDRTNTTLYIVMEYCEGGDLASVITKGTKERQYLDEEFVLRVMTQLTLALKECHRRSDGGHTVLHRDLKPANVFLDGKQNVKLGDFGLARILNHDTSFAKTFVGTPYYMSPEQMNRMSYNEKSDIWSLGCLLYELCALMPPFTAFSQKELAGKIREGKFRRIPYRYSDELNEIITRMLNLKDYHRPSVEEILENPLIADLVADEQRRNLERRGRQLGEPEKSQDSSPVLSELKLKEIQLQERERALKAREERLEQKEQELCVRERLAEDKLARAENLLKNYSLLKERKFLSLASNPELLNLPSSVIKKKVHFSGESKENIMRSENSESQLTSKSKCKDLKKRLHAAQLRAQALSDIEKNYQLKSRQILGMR
# [11] = biological target: Dual specificity protein kinase CLK4 (Homo sapiens, UniProt Q9HAZ1); assay type: functional
# LIM domain kinase 1 = LIM domain kinase 1 (Homo sapiens, UniProt P53667); assay: Navigating the Kinome. Panel member name: LIMK1; assay type: functional
# [12] = biological target: Tyrosine-protein kinase receptor TYRO3 (Homo sapiens, UniProt Q06418); assay type: functional;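 also: TYRO3 value obtained as one member of a kinome-wide profiling panel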
# Escherichia coli = assay: microbe, parasite or virus in culture
# [13] = tested on: Streptococcus sp. 'group A'; assay: Streptococcus pyogenes SK(-)GAS viability under kanamycin – luminescence, BacTiterGlo, confirmation, counter-screen for streptokinase expression inhibitor project, dose response (AID 1900); assay type: functional, organism-based
# Streptococcus = assay: GAS UMAA2166 growth inhibition – luminescence, BacTiterGlo, counter-screen for streptokinase expression inhibitor project, dose response (AID 1915); assay type: functional, organism-based;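 also: potency for reduction of bacterial viability or growth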
# [14] = biological target: Protein disulfide-isomerase (Homo sapiens, UniProt P07237); assay: inhibition of PDI-driven insulin aggregation – biochemical, turbidity, absorbance, cherry-picked samples, dose response (AID 602350); assay type: functional
# Sequence of Protein disulfide-isomerase (P07237 whole entry): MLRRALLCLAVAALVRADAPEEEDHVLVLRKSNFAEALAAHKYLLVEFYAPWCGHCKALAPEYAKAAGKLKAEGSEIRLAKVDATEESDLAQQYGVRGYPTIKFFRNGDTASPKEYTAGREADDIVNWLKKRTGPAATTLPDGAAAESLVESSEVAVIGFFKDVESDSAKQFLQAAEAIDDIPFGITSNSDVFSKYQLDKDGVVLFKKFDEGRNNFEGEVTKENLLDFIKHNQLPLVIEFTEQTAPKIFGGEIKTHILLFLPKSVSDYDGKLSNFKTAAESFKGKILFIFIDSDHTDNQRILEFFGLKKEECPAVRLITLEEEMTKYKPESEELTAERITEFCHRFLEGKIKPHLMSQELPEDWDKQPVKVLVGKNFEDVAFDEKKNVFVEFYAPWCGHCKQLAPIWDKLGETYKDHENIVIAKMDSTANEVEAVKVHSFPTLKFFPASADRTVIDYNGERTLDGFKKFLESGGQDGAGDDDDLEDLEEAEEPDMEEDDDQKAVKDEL
# [15] = Counterscreen for activators of the function of SWI/SNF related, matrix associated, actin dependent regulator of chromatin, subfamily a, member 2 (SMARCA2, BRM): Luminescence-based cell-based high throughput dose response assay to identify non-selective compounds using the VP16 reporter assay.; assay type: functional
# [16] = biological target: SWI/SNF-related matrix-associated actin-dependent regulator of chromatin subfamily A member 2 (Homo sapiens, UniProt P51531); assay: Luminescence-based cell-based high throughput dose response assay to identify activators of the function of SWI/SNF related, matrix associated, actin dependent regulator of chromatin, subfamily a, member 2 (SMARCA2, BRM).; assay type: functional
# Sequence of SWI/SNF-related matrix-associated actin-dependent regulator of chromatin subfamily A member 2 (P51531 whole entry): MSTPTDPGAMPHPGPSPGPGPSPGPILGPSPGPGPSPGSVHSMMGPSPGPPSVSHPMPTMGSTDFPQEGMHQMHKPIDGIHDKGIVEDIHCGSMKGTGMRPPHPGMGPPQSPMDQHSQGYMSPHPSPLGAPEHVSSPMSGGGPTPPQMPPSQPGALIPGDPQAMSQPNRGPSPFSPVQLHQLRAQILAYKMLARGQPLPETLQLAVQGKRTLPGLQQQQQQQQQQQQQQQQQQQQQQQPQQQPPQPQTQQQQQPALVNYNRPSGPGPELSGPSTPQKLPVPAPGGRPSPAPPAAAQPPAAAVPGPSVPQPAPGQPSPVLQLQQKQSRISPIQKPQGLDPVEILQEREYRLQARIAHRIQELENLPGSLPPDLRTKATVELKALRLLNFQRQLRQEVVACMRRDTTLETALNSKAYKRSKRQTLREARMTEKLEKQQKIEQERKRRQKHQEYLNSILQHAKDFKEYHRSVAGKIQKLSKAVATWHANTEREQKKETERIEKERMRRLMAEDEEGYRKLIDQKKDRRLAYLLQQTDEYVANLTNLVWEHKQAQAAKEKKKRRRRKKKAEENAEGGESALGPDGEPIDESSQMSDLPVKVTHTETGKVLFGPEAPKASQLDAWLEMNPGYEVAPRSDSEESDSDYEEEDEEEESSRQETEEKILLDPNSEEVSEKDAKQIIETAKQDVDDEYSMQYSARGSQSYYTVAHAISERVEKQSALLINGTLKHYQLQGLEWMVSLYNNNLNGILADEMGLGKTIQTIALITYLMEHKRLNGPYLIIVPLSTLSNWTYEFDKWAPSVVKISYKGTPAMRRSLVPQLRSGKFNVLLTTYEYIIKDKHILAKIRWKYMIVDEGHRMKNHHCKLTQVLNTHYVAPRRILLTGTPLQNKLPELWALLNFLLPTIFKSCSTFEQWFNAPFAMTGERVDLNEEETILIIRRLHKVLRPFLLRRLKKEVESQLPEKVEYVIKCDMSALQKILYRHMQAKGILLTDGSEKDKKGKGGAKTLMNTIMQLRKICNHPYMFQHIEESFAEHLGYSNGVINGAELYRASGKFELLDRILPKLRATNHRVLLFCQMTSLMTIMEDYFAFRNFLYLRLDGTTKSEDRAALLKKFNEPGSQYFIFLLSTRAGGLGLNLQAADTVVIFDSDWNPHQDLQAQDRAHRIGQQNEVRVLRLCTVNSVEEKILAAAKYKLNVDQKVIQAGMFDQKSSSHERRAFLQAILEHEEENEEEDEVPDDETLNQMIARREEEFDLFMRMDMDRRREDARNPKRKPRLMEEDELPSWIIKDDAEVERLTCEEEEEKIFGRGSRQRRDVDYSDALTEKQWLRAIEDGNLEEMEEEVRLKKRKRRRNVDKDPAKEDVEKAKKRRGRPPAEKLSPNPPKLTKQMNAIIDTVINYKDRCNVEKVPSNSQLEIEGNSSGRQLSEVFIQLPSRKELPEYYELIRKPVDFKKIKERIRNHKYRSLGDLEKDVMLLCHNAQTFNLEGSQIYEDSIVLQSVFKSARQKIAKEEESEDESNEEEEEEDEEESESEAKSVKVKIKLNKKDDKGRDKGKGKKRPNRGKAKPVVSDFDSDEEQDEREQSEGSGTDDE
# [17] = cAMP pathway inhibition in counterscreen cell line – TR-FRET cAMP detection, counter-screen for MC4R biased antagonist project, dose response (AID 602305); assay type: functional, cell-based;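 also: U2OS cells stimulated with forskolin near its EC80 as the cAMP inducer; potency is for inhibition of forskolin-stimulated cAMP signaling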
# Melanocortin receptor 4 = Melanocortin receptor 4 (Homo sapiens, UniProt P32245); assay: inhibitors of MC4R cAMP signaling – cell-based, TR-FRET, biased antagonists, dose response (AID 602298); assay type: functional;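 also: antagonist potency against agonist-stimulated cAMP production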
# Sequence of Melanocortin receptor 4 (P32245 whole entry): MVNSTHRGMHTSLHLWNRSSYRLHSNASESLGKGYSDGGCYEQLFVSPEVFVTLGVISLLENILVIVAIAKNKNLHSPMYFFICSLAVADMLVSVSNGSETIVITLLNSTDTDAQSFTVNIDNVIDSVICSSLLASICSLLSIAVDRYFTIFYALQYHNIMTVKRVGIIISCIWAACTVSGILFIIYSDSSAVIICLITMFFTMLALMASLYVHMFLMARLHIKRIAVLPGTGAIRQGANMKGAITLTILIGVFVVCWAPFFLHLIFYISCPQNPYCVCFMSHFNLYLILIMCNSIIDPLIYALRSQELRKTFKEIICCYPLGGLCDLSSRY
# [18] = reduction of Shn3 3'UTR-driven luciferase in osteoblasts – cell-based, Clone20 osteoblasts, firefly luciferase, cherry-picked, dose response (AID 624132); assay type: functional;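 also: firefly luciferase luminescence from reporter carrying the Shn3 3'UTR in osteoblasts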
# [19] = loss of viability in HepG2 cells – cell-based, CellTiter-Glo, cherry-picked, cytotoxicity control for Shn3 inhibitor project, dose response (AID 624134); assay type: functional
# [20] = non-specific 3'UTR reporter inhibition in Clone20-Shn3RL – cell-based, Renilla luciferase, cherry-picked, counter-screen for Shn3 inhibitor project, dose response (AID 624133); assay type: functional
# [21] = biological target: Mitogen-activated protein kinase kinase kinase kinase 2 (Homo sapiens, UniProt Q12851); assay type: functional;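 also: measured as one member of a kinome-wide kinase panel, with MAP4K2 as the panel entry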
# Sequence of Mitogen-activated protein kinase kinase kinase kinase 2 (Q12851 whole entry): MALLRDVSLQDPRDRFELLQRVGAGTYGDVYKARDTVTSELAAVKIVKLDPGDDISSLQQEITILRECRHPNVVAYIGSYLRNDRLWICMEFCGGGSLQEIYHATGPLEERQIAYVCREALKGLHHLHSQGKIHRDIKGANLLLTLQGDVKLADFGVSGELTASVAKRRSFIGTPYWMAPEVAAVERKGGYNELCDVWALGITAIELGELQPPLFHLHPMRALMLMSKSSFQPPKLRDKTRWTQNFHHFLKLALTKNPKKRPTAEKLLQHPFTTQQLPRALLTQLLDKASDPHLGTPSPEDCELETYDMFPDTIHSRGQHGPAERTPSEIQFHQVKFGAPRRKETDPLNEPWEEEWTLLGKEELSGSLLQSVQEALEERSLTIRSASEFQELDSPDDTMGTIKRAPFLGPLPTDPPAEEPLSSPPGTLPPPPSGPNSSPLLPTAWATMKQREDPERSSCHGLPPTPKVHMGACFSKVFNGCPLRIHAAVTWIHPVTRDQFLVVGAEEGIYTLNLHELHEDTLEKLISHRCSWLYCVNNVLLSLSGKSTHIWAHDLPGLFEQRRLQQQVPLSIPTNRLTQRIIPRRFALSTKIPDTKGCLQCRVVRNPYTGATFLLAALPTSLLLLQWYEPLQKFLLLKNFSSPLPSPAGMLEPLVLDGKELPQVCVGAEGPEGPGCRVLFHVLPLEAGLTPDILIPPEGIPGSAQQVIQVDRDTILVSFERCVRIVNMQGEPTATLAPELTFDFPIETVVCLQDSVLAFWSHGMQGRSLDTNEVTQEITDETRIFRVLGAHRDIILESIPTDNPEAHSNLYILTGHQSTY
# [22] = biological target: Tyrosine-protein kinase JAK2 (Homo sapiens, UniProt O60674); assay type: functional;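 also: JAK2 tested as one member of a kinase panel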
# [23] = biological target: Dual specificity mitogen-activated protein kinase kinase 1 (Homo sapiens, UniProt Q02750); assay: Navigating the Kinome. Panel member name: MAP2K1; assay type: functional
# Sequence of Dual specificity mitogen-activated protein kinase kinase 1 (Q02750 whole entry): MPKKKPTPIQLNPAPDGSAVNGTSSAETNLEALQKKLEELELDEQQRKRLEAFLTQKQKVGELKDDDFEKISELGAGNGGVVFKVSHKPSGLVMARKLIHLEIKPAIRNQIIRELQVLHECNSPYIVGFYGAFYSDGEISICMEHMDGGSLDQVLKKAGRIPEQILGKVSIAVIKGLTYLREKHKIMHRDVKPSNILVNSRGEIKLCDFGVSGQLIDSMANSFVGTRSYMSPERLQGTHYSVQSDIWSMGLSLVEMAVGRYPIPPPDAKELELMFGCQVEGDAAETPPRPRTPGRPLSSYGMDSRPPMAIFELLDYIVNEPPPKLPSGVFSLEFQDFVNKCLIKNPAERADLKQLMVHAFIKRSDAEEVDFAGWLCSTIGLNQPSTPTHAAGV
# [24] = biological target: Proto-oncogene tyrosine-protein kinase receptor Ret (Homo sapiens, UniProt P07949); assay type: functional;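 also: measured within a kinome-wide profiling panel, RET as the panel member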
# A-375 = assay: MITF: Counter assay: A375 proliferation Measured in Cell-Based System Using Plate Reader - 2084-03_Inhibitor_Dose_DryPowder_Activity. [Related pubchem assays (depositor defined):AID488944]; assay type: functional; details: Homo sapiens
# [25] = viability of PTEN-deleted HCT116 cells – cell-based, HCT116 PTEN knockout, dose response (AID 1047); assay type: functional;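 also: HCT116 colon tumor cells with PTEN knocked out; cells exposed to compound for 60 hours before readout; potency for loss of cell viability measured by luminescence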
# [26] = viability of HCT116 lacking mutant beta-catenin – cell-based, human colon tumor, dose response (AID 1045); assay type: functional;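 also: HCT116 colon tumor cells with beta catenin knocked out; cells exposed to compound for 60 hours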
# [27] = biological target: T4, Microphthalmia-associated transcription factor (Homo sapiens, UniProt O75030); assay: reducers of TRPM1 reporter luminescence, concentration series – cell-based, SK-MEL-5, cherry-picked, set 3, MITF inhibitor project, dose response (AID 493073); assay type: functional;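 also: SK-MEL-5 melanoma cells with luciferase driven by the MITF target TRPM1 promoter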
# T4 sequence (O75030 whole entry): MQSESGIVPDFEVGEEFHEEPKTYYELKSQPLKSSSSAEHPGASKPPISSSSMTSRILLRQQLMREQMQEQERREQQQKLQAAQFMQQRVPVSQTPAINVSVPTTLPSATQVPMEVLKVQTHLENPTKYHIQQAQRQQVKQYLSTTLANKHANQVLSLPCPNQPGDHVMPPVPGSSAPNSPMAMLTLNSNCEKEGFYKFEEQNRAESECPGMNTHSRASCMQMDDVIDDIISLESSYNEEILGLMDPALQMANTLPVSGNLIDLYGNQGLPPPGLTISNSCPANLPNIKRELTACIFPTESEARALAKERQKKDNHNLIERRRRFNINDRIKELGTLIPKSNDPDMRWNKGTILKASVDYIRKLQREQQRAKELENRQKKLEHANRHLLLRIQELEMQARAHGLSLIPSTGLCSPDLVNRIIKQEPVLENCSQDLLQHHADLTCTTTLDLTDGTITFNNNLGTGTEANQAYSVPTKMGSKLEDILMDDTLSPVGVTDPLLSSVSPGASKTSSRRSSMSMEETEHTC
compound,measurement,setting,value
COc1cccc(CNC(=O)CCNS(=O)(=O)c2cccc3nsnc23)c1,IC50,HEK293,> 67.5 µM (inactive)
same,IC50,[1],> 67.5 µM (inactive)
Cc1oc2nc(SCCCC(=O)NCCO)nc(N)c2c1C,IC50,[2],6.46 µM (active)
Nc1ccc(-c2csc3ccnc(N)c23)cc1,Ki,Aurora kinase A,1.26 µM (active)
same,Ki,Aurora kinase B,0.2 µM (active)
COC(=O)N/N=C/c1cc(C)n(-c2ccccc2)c1C,IC50,[3],11.5 µM (active)
COc1ccc(-c2cnnc(N/N=C/c3ccc(O)c(O)c3)n2)cc1,IC50,[4],63.9 µM (active)
same,AC50,[5],0.482 µM (active)
Cc1cc(Cl)ccc1Nc1ncccc1C(N)=O,IC50,HEK293,> 67.5 µM (inactive)
same,IC50,[1],> 67.5 µM (inactive)
O=C(NN1C(=O)/C(=C\c2ccc(O)c([N+](=O)[O-])c2)SC1=S)c1ccccc1Cl,AC50,[6],5.26 µM (active)
same,IC50,[7],31.1 µM (active)
same,AC50,[5],3.01 µM (active)
same,IC50,[8],26.8 µM (active)
same,IC50,Prothrombin,62.5 µM (active)
COc1cc(-c2ccc(=O)n(Cc3cccc(C)c3)n2)cc(OC)c1OC,Ki,[9],1 µM (active)
same,Ki,[10],3.16 µM (active)
same,Ki,[11],2 µM (active)
same,Ki,LIM domain kinase 1,1 µM (active)
same,Ki,[12],2.51 µM (active)
Cc1ccc(C(=O)NC2CCCC(C)C2C)cc1S(=O)(=O)N1CCCCC1 (stereo not drawn),IC50,[3],9.55 µM (active)
CC[C@H]1OC(=O)[C@H](C)[C@@H](O[C@H]2C[C@@](C)(OC)[C@@H](O)[C@H](C)O2)[C@H](C)[C@@H](O[C@@H]2O[C@H](C)C[C@H](N(C)C)[C@H]2O)[C@](C)(O)C[C@@H](C)CN(C)[C@H](C)[C@@H](O)[C@]1(C)O [AZITHROMYCIN],AC50,Escherichia coli,29.3 µM (active)
same,EC50,[13],< 0.06 µM (active)
same,EC50,Streptococcus,0.066 µM (active)
O=C(c1ccco1)N1CCN(Cc2cc(=O)oc3cc(O)ccc23)CC1,AC50,[14],19.5 µM (active)
O=C(C[S+]([O-])c1ccc(C(F)(F)F)cc1[N+](=O)[O-])Oc1ccc(Cl)cc1 (stereo not drawn),EC50,[15],> 91.2 µM (inactive)
same,EC50,[16],> 91.2 µM (inactive)
same,IC50,[17],> 64.6 µM (inactive)
same,IC50,Melanocortin receptor 4,> 64.6 µM (inactive)
CCCCCCCN(c1ccccc1)[C@@H]1C[C@H]2CCCC(=O)N3CC[C@@H](C1)[C@@H]23,AC50,Escherichia coli,13.7 µM (active)
same,AC50,[18],11.4 µM (active)
same,IC50,[17],22.6 µM (inactive)
same,AC50,[19],46.4 µM (active)
same,AC50,[20],4.54 µM (active)
same,IC50,Melanocortin receptor 4,7.91 µM (active)
O=C1CN=C(c2ccc(F)cc2)c2cn[nH]c2N1,Ki,[21],63.1 µM (active)
same,Ki,[22],100 µM (active)
same,Ki,[23],79.4 µM (active)
same,Ki,[24],79.4 µM (active)
COc1ccc(C(CCNC(C)c2ccccc2)c2ccc(F)cc2)cc1 (stereo not drawn),AC50,A-375,13.8 µM (active)
same,EC50,[25],11.2 µM (active)
same,EC50,[26],9.11 µM (active)
same,AC50,[27],16.6 µM (active)
